We go through 1 molecule from patent publication US20020091086A1, “Peptides that block viral infectivity and methods of use thereof” (priority 1999, published 2002).

Structures are written as SMILES. Where “and” joins values, the source holds several entries; their conditions need not be identical. Equal entries are not always repeated. Peptide text beside a SMILES is read from it. Some results are limits rather than exact numbers.

One series has as its system HIV-1 SF-2 virus. The experiment in a line: electron microscopy of HIV-1 particles from infected HUT78 cells. Format: cell-based. The conditions noted are these: 1 μM or 10 μM added 3, 5 or 7 days post infection; cells fixed day 14. The method, then: In this set of experiments, HUT78 cells were infected with HIV-1 SF-2 virus at 300TCID50 for 1 hr at 37° C. Subsequently, the infected cells were washed and pelleted 3 times, as described in Example 2. Thereafter, the cells were resuspended in RPMI culture medium supplemented with 10% FBS, antibiotics (100 u/ml) and polybrene (3.2 μg/ml). GPG-NH2 was then added into the cell cultures 3, 5 or 7 days post infection at concentration of 1 μM or 10 μM. A control sample was administered 0.5μM Ritonavir (a protease inhibitor).
The cells were cultured until day 14, at which point, the cells were fixed in 2.5% glutaraldehyde by conventional means. The fixed cells were then postfixed in 1% OSO4 and were dehydrated, embedded with epoxy resins, and the blocks were allowed to polymerize. Epon sections of virus infected cells were made approximately 60-80 nm thin in order to accommodate the width of the nucleocapsid. The sections were mounted to grids stained with 1.0% uranyl acetate and were analyzed in a Zeiss CEM 902 microscope at an accelerating voltage of 80 kV. The microscope was equipped with a spectrometer to improve image quality and a liquid nitrogen cooling trap was used to reduce beam damage. The grids having sections of control and GPG-NH2 incubated cells were examined in several blind studies.

For a further series, the target named is HIV-1 specific protease (Human immunodeficiency virus type 1 group M subtype B, UniProt P04585). Description: activity of the HIV-1 specific protease. Format: biochemical.
A short description of series [1]: four week oral toxicology study in rats. Format: in vivo. The conditions noted are these: orally up to 1 g per kilo bodyweight per day, twenty eight days. The method, then: In this example, the results from several in vivo toxicology studies on small peptides administered in large doses to rodents are presented. In a first experiment, a large single dose of small peptide was delivered to mice and the toxic effects were analyzed. […] In a second experiment, several doses of varying amounts of a small peptide were delivered to mice for almost three weeks. Groups of mice (five mice in each group) were given intraperitoneal injections of GPG-NH2 (0.01, 0.1 and 1 g per kilo bodyweight and day, respectively) starting at an age of 6 days. Daily injections were continued for 18 days. […] In a similar experiment, a four week toxicology study of GPG-NH2 was performed by Scantox A/S in Denmark. GPG-NH2 was given orally to rats at doses up to 1 g per kilo bodyweight per day for twenty eight days.

Series [2] has as its system HIV-1 isolate p7163 (inter AZT). Description: resistant HIV-1 isolates in PBMC, p24 ELISA. Format: cell-based. The conditions noted are these: GPG 100 μM, 14 days post infection. Background: ELISA stands for enzyme-linked immunosorbent assay.
Series [3] in a line: storage stability of capsules. Format: physicochemical. The following applies: Five-hundred milligram capsules; stored at 4° C. From the text:
Compositions of the peptide agents suitable for gastrointestinal administration include, but not limited to, pharmaceutically acceptable powders, pills or liquids for ingestion and suppositories for rectal administration. Due to the most common routes of HIV infection and the ease of use, gastrointestinal administration, particularly oral, is the preferred embodiment of the present invention. […] As previously shown in other virus-host systems, specific antiviral activity of small peptides can be detected in serum after oral administration. (Miller et al., Appl. Microbiol., 16:1489 (1968)). Since small peptides apparently evade degradation by the patient's digestive system, they are ideal for oral administration.

Another series concerns HIV-1 DNA. Description: Southern blot of proviral DNA in HIV-1 infected H-9 cells. Format: cell-based. The following applies: 0-2,000 μM; first 24 h. Here is the method:
To study proviral DNA and viral RNA synthesis, DNA and RNA from HIV-1 infected H-9 cells cultured in the presence of a small peptide were prepared at various time points (0-48 h).

A further series concerns the target T1, recombinant p24 (Human immunodeficiency virus type 1 group M subtype B, UniProt P04591).
T1 construct: purchased AIDS program, NCIB (gift, not bought)
The experiment in a line: dialysis-based binding assay with 14C-GPG-NH2, p24. Further details: species or system HIV-1. Here is the method: A dialysis-based binding assay was conducted using a dialysis membrane with a pore size of less than 10 kD. (Slide-A-Lyzer, Pierce). Fifty microliters of a 10 μM stock of the recombinant proteins p24 and gp120 (gifts from the AIDS program, NCIB) and BSA (Sigma) were introduced into separate dialysis membranes and the proteins were dialyzed at 4° C. for 2 days against a 500 ml solution composed of 150 mM NaCl and 50 mM Tris-HCl, pH 7.4 buffer and 27.5 μM of ^14C-GPG-NH2 (Amersham Ltd. UK). Subsequently, ten or five microliter aliquots of the dialyzed p24, gp120, and BSA were removed and mixed with 3 ml of ReadySafe (Beckman) in a scintillation vial. The C^14 was then detected by scintillation counting.

The next series has as its system GPG-deleted mutant mp8. Description: infectivity in MT-2 cells, p24 ELISA, GPG-deleted mutant mp8. Format: cell-based, HIV-1. Here is the method: Accordingly, the ability of GPG-NH2 to inhibit the infectivity of wild-type and V3-loop deletion mutants (GPG domain) in MT-2 cells was determined. In these experiments, approximately 200,000 MT-2 cells were infected with HIV-1Bru wild-type and GPG-deleted mutants mp8 and mp10 at 25 TCID50 to test the inhibitory effect of GPG-NH2 The MT-2 cells were resuspended in 1 ml of RPMT 1640 medium supplemented with 10% (v/v) heat-inactivated fetal bovine serum (FBS, GIBCO), penicillin (100μ/ml), streptomycin (100μ/ml) and Polybrene (Sigma 2 μg/ml) with or without the presence of GPG-NH2 at concentration 20 of μM and 100 μM. Thereafter, viruses were added at 25 TCID50 in a volume of 20-30 μl. Cells were incubated with virus at 37° C. for 16 hr then loosely pelleted by centrifugation at 170×g for 7 minutes. The cells were then washed three times in RPMI medium without peptides at room temperature by cell sedimentation at 170×g for 7 minutes as above. After the final wash, the cells were resuspended in RPMI culture medium in 24-well plate (Costar corporation) then kept at 37° C. in 5% CO2 with humidity. Culture supernatants were collected when medium was changed at day 4, 7, 11 and 14 post infection. To monitor the replication of virus, HIV-1 p24 antigen protein in the supernatants from day 7 and 14 was assayed by a ELISA kit (Abbott Laboratories) which has a linear dose-response range from 20 pg to 640 pg of p24 per ml and the p24 amount can be determined with aid of the regression line.

Consider `NCC(=O)N1CCC[C@H]1C(=O)NCC(N)=O` [GPG-NH2, glycyl-prolyl-glycine amide] (H-Gly-Pro-Gly-NH2), for which, in the series with HIV-1 SF-2 virus, the “viral nucleocapsid formation, electron microscopy” value is “interrupted proper viral nucleocapsid formation”. The “activity of the HIV-1 specific protease” value on HIV-1 specific protease is listed as “not to affect”. Further, the signs of toxicity entry in series [1] is given as “No signs of toxicity”. For the same molecule, the “% reduction” value in series [2] is reported as “(100%)”. The “HIV-1 p24” value in series [2] was less than 500 pg/mL. The molecule further came in with a stability on storage in series [3] not below 12 months. Also, the “HIV-1 entry and proviral DNA synthesis” value with HIV-1 DNA was “no inhibitory effect”. Besides, the “radioactive GPG-NH2 associated with p24” value at recombinant p24 (dialysis 2 days at 4° C. against 27.5 μM 14C-GPG-NH2, buffer 1.816) was determined as 13.712 μCi/ml. Further, the “times buffer, p24” value on recombinant p24 (dialysis against 27.5 μM 14C-GPG-NH2) is 7.5 times buffer and 7.551 times buffer. Besides, the p24 in the series with GPG-deleted mutant mp8 (GPG 20 μM, Day 7) is 2420 pg/mL; in the series with GPG-deleted mutant mp8 (GPG 20 μM, Day 14) it was 69100 pg/mL; in the series with GPG-deleted mutant mp8 (GPG 100 μM, Day 7), 208 pg/mL; in the series on GPG-deleted mutant mp8 (GPG 100 μM, Day 14), 7410 pg/mL. Further, the reduction (%) in the series on GPG-deleted mutant mp8 (GPG 20 μM, Day 7) is given as 24%; in the series on GPG-deleted mutant mp8 (GPG 20 μM, Day 14), 53%; in the series with GPG-deleted mutant mp8 (GPG 100 μM, Day 7), 93%; in the series on GPG-deleted mutant mp8 (GPG 100 μM, Day 14), 95%.
